# Reference: article PMC12467033, “Exploring the Inhibitory Potential of Six Porphyrin Compounds Against α-Amylase and α-Glucosidase Linked to Diabetes” (Biomolecules, 2025)
# Values joined by “and” are separate entries in the source; they are usually repeats but may differ in a detail not shown here. Identical values can stand only once. Like-named read-outs stand apart in the source and are kept apart here.
# Experiments:
# α-glucosidase [1] = target: T1, α-glucosidase (Saccharomyces cerevisiae, UniProt P53341); format: biochemical
# T1 sequence (P53341 whole entry): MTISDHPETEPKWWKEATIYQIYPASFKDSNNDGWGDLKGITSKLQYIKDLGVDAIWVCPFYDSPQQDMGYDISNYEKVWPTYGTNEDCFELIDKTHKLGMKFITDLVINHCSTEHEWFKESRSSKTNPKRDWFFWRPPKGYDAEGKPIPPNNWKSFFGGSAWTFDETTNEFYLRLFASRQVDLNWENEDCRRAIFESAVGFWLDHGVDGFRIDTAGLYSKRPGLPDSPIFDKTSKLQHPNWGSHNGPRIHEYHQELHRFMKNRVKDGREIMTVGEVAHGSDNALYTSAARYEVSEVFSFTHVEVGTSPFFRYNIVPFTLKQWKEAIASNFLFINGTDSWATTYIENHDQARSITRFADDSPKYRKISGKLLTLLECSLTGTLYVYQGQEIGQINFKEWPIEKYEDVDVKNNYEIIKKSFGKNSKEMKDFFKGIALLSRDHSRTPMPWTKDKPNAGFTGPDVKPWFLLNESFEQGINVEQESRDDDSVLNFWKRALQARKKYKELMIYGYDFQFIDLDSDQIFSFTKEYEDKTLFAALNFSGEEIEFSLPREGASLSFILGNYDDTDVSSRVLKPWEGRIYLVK
# Description: In the experiment, the concentration of the fixed substrate Gal-G2-α-CNP/pNPG solution was 5 mmol/L, and the concentrations of the two enzymes (100, 200, 300, 400 U/L) were used to determine the effect of different concentrations of porphyrins on enzyme activity. The concentration of the enzyme was 200 U/L, and the concentration of the substrate Gal-G2-α-CNP/pNPG solution (2.5, 5, 7.5, 10 mmol/L) was used to determine the effect of different concentrations of porphyrins on the enzyme-catalyzed substrate activity.
# Upon identifying the type of inhibition, the kinetic equations vary for different inhibition types.
# In the formula, v, Vmax, Km, Ki, and Kis represent the reaction rate, maximum reaction rate, Michaelis constant, and free enzyme inhibition constant, respectively, and the binding enzyme inhibition constant. [S] denotes the substrate concentration. [I] denotes the inhibitor concentration.
# α-amylase [2] = target: T2, α-amylase (Sus scrofa, UniProt P00690); experiment: Fluorescence quenching, binding and thermodynamics with α-amylase
# T2 sequence (P00690 16-511): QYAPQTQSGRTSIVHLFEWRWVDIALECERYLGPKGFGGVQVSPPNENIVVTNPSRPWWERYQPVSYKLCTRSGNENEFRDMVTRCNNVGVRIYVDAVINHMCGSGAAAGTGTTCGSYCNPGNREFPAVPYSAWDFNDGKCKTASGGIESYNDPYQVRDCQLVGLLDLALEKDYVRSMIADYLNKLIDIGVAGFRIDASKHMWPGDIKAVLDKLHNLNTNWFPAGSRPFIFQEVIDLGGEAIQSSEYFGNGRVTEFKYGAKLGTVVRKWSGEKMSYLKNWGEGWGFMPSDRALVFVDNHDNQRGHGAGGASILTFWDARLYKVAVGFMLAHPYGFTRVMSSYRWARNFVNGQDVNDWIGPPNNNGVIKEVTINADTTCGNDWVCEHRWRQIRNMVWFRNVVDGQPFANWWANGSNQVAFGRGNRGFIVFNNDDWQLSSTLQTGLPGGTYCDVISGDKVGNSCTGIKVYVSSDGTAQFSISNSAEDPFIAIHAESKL
# Description: In the α-amylase experiment, a series of porphyrins and amylase (200 U/L) were mixed in a volume ratio of 1:1.
# (§1) The Stern–Volmer equation [35] was adopted to determine the quenching mechanisms between six porphyrin compounds and both enzymes in the experimental group, with Formula (6):(6) F0/F=1+Ksv[Q]=1+Kqτ0[Q]
# (§2) The Stern–Volmer equation was adapted based on experimental data to more accurately characterize the quenching behavior [36], with Formula (7):(7) F0/F=e^Ksv[Q]=e^Kqτ0[Q]
# (§3) In the formula, the fluorescence quenching ratio was calculated as F0/F, where F0 corresponds to the emission intensity of pure α-amylase solution (control) and F denotes the intensity measured after the incremental addition of porphyrin ligands. KSV and Kq denote the Stern–Volmer quenching constant and the bimolecular quenching rate constant, respectively, τ0 (10^−8 s) is the average fluorescence lifetime of the fluorophore in the absence of quencher, and [Q] indicates the concentration of porphyrin compounds.
# (§4) Due to the presence of an internal filtration effect, a decrease in the fluorescence intensity of the system may occur. Therefore, all fluorescence data were corrected using Formula (8) to eliminate the internal filtration effect.(8) Fcor=Fobse^(Aex+Aem)/2
# (§5) The evaluation of the interaction forces between porphyrin compounds and the two enzymes can be achieved by calculating thermodynamic parameters. When both ΔH^0 and ΔS^0 are positive, the predominant interaction force is hydrophobic. When both ΔH^0 and ΔS^0 are negative, the main forces are hydrogen bonding and van der Waals forces. When ΔH^0 < 0 and ΔS^0 > 0, the primary interaction is electrostatic attraction.
# (§6) The thermodynamic parameters were calculated using Formulas (9) and (10), and then the Van’t Hoff plot for the interactions between the porphyrin compounds and the two enzymes was generated by plotting lnKa on the Y-axis versus 1/T on the X-axis.(9) lnKa=−ΔH^0/RT+ΔS^0/R (10) ΔG^0=ΔH^0−TΔS^0=−RTlnKa
# α-glucosidase [3] = target: T1, α-glucosidase; experiment: Fluorescence quenching, binding and thermodynamics with α-glucosidase
# Procedure: In the α-amylase experiment, a series of porphyrins and amylase (200 U/L) were mixed in a volume ratio of 1:1. In the α-glucosidase experiment, the glucosidase concentration was 400 U/L, mixed in a volume ratio of 1:1; the samples were maintained at three different temperatures (298, 304, and 310 K) for 30 min, with excitation at 280 nm and emission scanning from 300 to 500 nm.
# as §1, §2, §3, §4, §5, §6
# α-amylase [4] = target: T2, α-amylase; experiment: FTIR secondary structure analysis of α-AMY complexes; conditions: enzyme–porphyrin molar ratio 1:2, amide I band
# Description: (§7) A molar ratio of 1:2 (α-amylase/α-glucosidase)–porphyrin solution was placed in a cryocentrifugal concentrator and the dried solid sample was mixed with dry KBr and measured using a Nicolet IS-50 FTIR Spectrometer (ThermoFisher, Waltham, MA, USA) with a scanning range of 4000–400 cm^−1 and a resolution of 4 cm^−1. The overlapping peaks in the amide I band (1700–1600 cm^−1) were further analyzed into multiple feature sub-peaks, and quantitative analysis of the relative content of various secondary structures in proteins using curve fitting methods was performed.
# α-glucosidase [5] = target: T1, α-glucosidase; experiment: FTIR secondary structure analysis of α-GLU complexes; conditions: enzyme–porphyrin molar ratio 1:2, amide I band
# Description: as §7
compound,measurement,setting,value
"O=C(O)c1ccc(-c2c3nc(c(-c4ccc(C(=O)O)cc4)c4ccc([nH]4)c(-c4ccc(C(=O)O)cc4)c4nc(c(-c5ccc(C(=O)O)cc5)c5ccc2[nH]5)C=C4)C=C3)cc1.[Cu+2] [Cu–TCPP, copper (II) meso-tetra (4-carboxyphenyl)porphyrin]",Km,α-glucosidase [1],3.3657 ± 0.0431 µg/mL and 3.8284 ± 0.1475 µg/mL and 4.7824 ± 0.1009 µg/mL and 5.4948 ± 0.1841 µg/mL and 6.4626 ± 0.1103 µg/mL
same,Vmax,α-glucosidase [1]; C 5 μg/mL,0.1496 ± 0.0019 ΔOD/min
same,Vmax,α-glucosidase [1]; C 10 μg/mL,0.1344 ± 0.0052 ΔOD/min
same,Vmax,α-glucosidase [1]; C 25 μg/mL,0.1028 ± 0.0022 ΔOD/min
same,Vmax,α-glucosidase [1]; C 50 μg/mL,0.0718 ± 0.0024 ΔOD/min
same,Vmax,α-glucosidase [1]; C 100 μg/mL,0.0473 ± 0.0008 ΔOD/min
same,type of inhibition of α-glucosidase,α-glucosidase [1]; Lineweaver–Burk plots,mixed type
same,reversibility of inhibition of α-glucosidase,"α-glucosidase [1]; enzyme 100–400 U/L, substrate 5 mmol/L",reversible inhibition
same,Kis,α-glucosidase [1]; enzyme–substrate complex inhibition constant,38.9429 ± 0.1021 µg/mL
same,Ki,α-glucosidase [1]; free enzyme inhibition constant,13.7332 ± 0.0823 µg/mL
same,Ka,α-amylase [2]; 298–310 K,10^3–10^4 L/mol
same,quenching mechanism of α-amylase fluorescence,"α-amylase [2]; Stern–Volmer plots, 298–310 K",pure static quenching
same,Ka (binding constant),α-amylase [2]; T 298 K,0.20 ± 0.01 ×10^5 L/mol
same,Kq,α-amylase [2]; T 298 K,4.37 ± 0.07 ×10^12 L/mol/s
same,Ksv,α-amylase [2]; T 298 K,4.37 ± 0.07 ×10^4 L/mol
same,n (number of binding sites),α-amylase [2]; T 298 K,0.93
same,ΔG^0,α-amylase [2]; T 298 K,-5.868 ± 0.012 kcal/mol
same,Ka (binding constant),α-amylase [2]; T 304 K,0.10 ± 0.01 ×10^5 L/mol
same,Kq,α-amylase [2]; T 304 K,4.33 ± 0.03 ×10^12 L/mol/s
same,Ksv,α-amylase [2]; T 304 K,4.33 ± 0.03 ×10^4 L/mol
same,n (number of binding sites),α-amylase [2]; T 304 K,0.84
same,ΔG^0,α-amylase [2]; T 304 K,-5.566 ± 0.0072 kcal/mol
same,Ka (binding constant),α-amylase [2]; T 310 K,0.06 ± 0.01 ×10^5 L/mol
same,Kq,α-amylase [2]; T 310 K,4.32 ± 0.02 ×10^12 L/mol/s
same,Ksv,α-amylase [2]; T 310 K,4.32 ± 0.02 ×10^4 L/mol
same,n (number of binding sites),α-amylase [2]; T 310 K,0.78
same,ΔG^0,α-amylase [2]; T 310 K,-5.337 ± 0.012 kcal/mol
same,ΔH^0,"α-amylase [2]; Van’t Hoff, 298–310 K",-19.04 ± 0.017 kcal/mol
same,ΔS^0,"α-amylase [2]; Van’t Hoff, 298–310 K",−185.16 ± 0.05 J/mol/k
same,binding constants K,α-glucosidase [3]; 310 K,(0.69 ± 0.01) × 10^5 L·mol^−1
same,quenching mechanism of α-glucosidase fluorescence,"α-glucosidase [3]; Stern–Volmer plots, 298–310 K",static quenching
same,Ka (binding constant),α-glucosidase [3]; T 298 K,55.21 ± 0.11 ×10^5 L/mol
same,Kq,α-glucosidase [3]; T 298 K,7.35 ± 0.09 ×10^12 L/mol/s
same,Ksv,α-glucosidase [3]; T 298 K,7.35 ± 0.09 ×10^4 L/mol
same,n (number of binding sites),α-glucosidase [3]; T 298 K,1.44
same,ΔG^0,α-glucosidase [3]; T 298 K,-9.192 ± 0.019 kcal/mol
same,Ka (binding constant),α-glucosidase [3]; T 304 K,7.38 ± 0.04 ×10^5 L/mol
same,Kq,α-glucosidase [3]; T 304 K,6.74 ± 0.03 ×10^12 L/mol/s
same,Ksv,α-glucosidase [3]; T 304 K,6.74 ± 0.03 ×10^4 L/mol
same,n (number of binding sites),α-glucosidase [3]; T 304 K,1.25
same,ΔG^0,α-glucosidase [3]; T 304 K,-8.162 ± 0.012 kcal/mol
same,Ka (binding constant),α-glucosidase [3]; T 310 K,0.69 ± 0.01 ×10^5 L/mol
same,Kq,α-glucosidase [3]; T 310 K,5.05 ± 0.02 ×10^12 L/mol/s
same,Ksv,α-glucosidase [3]; T 310 K,5.05 ± 0.02 ×10^4 L/mol
same,n (number of binding sites),α-glucosidase [3]; T 310 K,1.03
same,ΔG^0,α-glucosidase [3]; T 310 K,-6.859 ± 0.0096 kcal/mol
same,ΔH^0,"α-glucosidase [3]; Van’t Hoff, 298–310 K",-67.103 ± 0.0311 kcal/mol
same,ΔS^0,"α-glucosidase [3]; Van’t Hoff, 298–310 K",−812.45 ± 0.17 J/mol/k
same,Random Coil,α-amylase [4],20.94 ± 0.06%
same,α-Helix,α-amylase [4],20.76 ± 0.05%
same,β-Antiparallel,α-amylase [4],12.17 ± 0.02%
same,β-Sheet,α-amylase [4],10.94 ± 0.01%
same,β-Turn,α-amylase [4],35.19 ± 0.06%
same,Random Coil,α-glucosidase [5],25.05 ± 0.07%
same,α-Helix,α-glucosidase [5],23.65 ± 0.03%
same,β-Antiparallel,α-glucosidase [5],2.59 ± 0.01%
same,β-Sheet,α-glucosidase [5],10.93 ± 0.05%
same,β-Turn,α-glucosidase [5],37.78 ± 0.09%
